What was measured:
Assay in all cases: relative viability (nuclei count vs DMSO), 5 days (fraction); higher = more cells survive
Omipalisib + Bortezomib = compound: COc1ncc(-c2ccc3nccc(-c4ccnnc4)c3c2)cc1NS(=O)(=O)c1ccc(F)cc1F [Omipalisib] + CC(C)C[C@H](NC(=O)[C@H](Cc1ccccc1)NC(=O)c1cnccn1)B(O)O [Bortezomib] (partner 0.002 µM)
In short: (§1)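 Cells from lung cancer lines were seeded into 1536-well plates and, one day later, dosed by pin tool. Treatments were either a single drug or a fixed dose of an anchor drug with five library-drug doses (not always all listed) in √10 steps. After 5 days, nuclei were stained in a one-step fixation (final 0.05% Triton X-100, 1% formaldehyde, 1 ug/ml Hoechst) and counted on 4× images, and relative viability is the treated-to-vehicle nuclei ratio, as the median of duplicate plates.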

Omipalisib + OSI-027 = compound: COc1ncc(-c2ccc3nccc(-c4ccnnc4)c3c2)cc1NS(=O)(=O)c1ccc(F)cc1F [Omipalisib] + COc1cccc2cc(-c3nc([C@H]4CC[C@H](C(=O)O)CC4)n4ncnc(N)c34)[nH]c12 [OSI-027] (partner 0.5 µM)
In short: as §1

Omipalisib + Tozasertib = compound: COc1ncc(-c2ccc3nccc(-c4ccnnc4)c3c2)cc1NS(=O)(=O)c1ccc(F)cc1F [Omipalisib] + Cc1cc(Nc2cc(N3CCN(C)CC3)nc(Sc3ccc(NC(=O)C4CC4)cc3)n2)n[nH]1 [Tozasertib] (partner 0.1 µM)
In short: as §1

Omipalisib + Foretinib = compound: COc1ncc(-c2ccc3nccc(-c4ccnnc4)c3c2)cc1NS(=O)(=O)c1ccc(F)cc1F [Omipalisib] + COc1cc2c(Oc3ccc(NC(=O)C4(C(=O)Nc5ccc(F)cc5)CC4)cc3F)ccnc2cc1OCCCN1CCOCC1 [Foretinib] (partner 0.25 µM)
In short: as §1

Omipalisib + Pemetrexed = compound: COc1ncc(-c2ccc3nccc(-c4ccnnc4)c3c2)cc1NS(=O)(=O)c1ccc(F)cc1F [Omipalisib] + Nc1nc2[nH]cc(CCc3ccc(C(=O)N[C@@H](CCC(=O)O)C(=O)O)cc3)c2c(=O)[nH]1 [Pemetrexed] (partner 0.2 µM)
In short: as §1

Omipalisib + Decitabine = compound: COc1ncc(-c2ccc3nccc(-c4ccnnc4)c3c2)cc1NS(=O)(=O)c1ccc(F)cc1F [Omipalisib] + Nc1ncn([C@H]2C[C@H](O)[C@@H](CO)O2)c(=O)n1 [Decitabine] (partner 2 µM)
In short: as §1

Cell Line | relative viability (Omipalisib + Bortezomib; first compound 0.0003 µM) | relative viability (Omipalisib + Bortezomib; first compound 0.003 µM) | relative viability (Omipalisib + Bortezomib; first compound 0.03 µM) | relative viability (Omipalisib + OSI-027; first compound 0.0003 µM) | relative viability (Omipalisib + OSI-027; first compound 0.003 µM) | relative viability (Omipalisib + OSI-027; first compound 0.03 µM) | relative viability (Omipalisib + Tozasertib; first compound 0.0003 µM) | relative viability (Omipalisib + Tozasertib; first compound 0.003 µM) | relative viability (Omipalisib + Tozasertib; first compound 0.03 µM) | relative viability (Omipalisib + Foretinib; first compound 0.0003 µM) | relative viability (Omipalisib + Foretinib; first compound 0.003 µM) | relative viability (Omipalisib + Foretinib; first compound 0.03 µM) | relative viability (Omipalisib + Pemetrexed; first compound 0.0003 µM) | relative viability (Omipalisib + Pemetrexed; first compound 0.003 µM) | relative viability (Omipalisib + Pemetrexed; first compound 0.03 µM) | relative viability (Omipalisib + Decitabine; first compound 0.0003 µM) | relative viability (Omipalisib + Decitabine; first compound 0.003 µM) | relative viability (Omipalisib + Decitabine; first compound 0.03 µM)
RERF-LC-KJ | 1.1 | 0.795 | 0.664 | 0.524 | 0.423 | 0.367 | 0.463 | 0.525 | 0.382 | 0.786 | 0.58 | 0.594 | 0.47 | 0.439 | 0.414 | 0.637 | 0.502 | 0.434
NCI-H1666 | 0.749 | 0.473 | 0.333 | 0.758 | 0.621 | 0.609 | 0.605 | 0.524 | 0.552 | 0.92 | 0.819 | 0.629 | 0.879 | 0.892 | 0.631 | 0.843 | 0.614 | 0.567
EKVX | 1.01 | 0.777 | 0.401 | 0.612 | 0.371 | 0.256 | 0.407 | 0.246 | 0.157 | 0.649 | 0.801 | 0.183 | 0.491 | 0.437 | 0.264 | 0.305 | 0.289 | 0.238
BEN | 0.773 | 0.527 | 0.46 | 0.311 | 0.271 | 0.291 | 0.43 | 0.426 | 0.457 | 0.518 | 0.403 | 0.538 | 0.694 | 0.581 | 0.569 | 0.695 | 0.612 | 0.606
NCI-H322M | 1.28 | 1.01 | 1.03 | 0.562 | 0.481 | 0.412 | 0.467 | 0.407 | 0.348 | 0.888 | 0.684 | 0.566 | 0.584 | 0.585 | 0.452 | 0.711 | 0.643 | 0.527
SW 1573 | 0.885 | 0.818 | 0.411 | 0.397 | 0.371 | 0.225 | 0.171 | 0.146 | 0.109 | 0.693 | 0.595 | 0.401 | 0.568 | 0.549 | 0.366 | 0.306 | 0.241 | 0.239
HCC-366 | 0.918 | 0.707 | 0.168 | 1.18 | 0.35 | 0.203 | 0.113 | 0.0977 | 0.0346 | 0.849 | 0.772 | 0.189 | 0.214 | 0.257 | 0.171 | 0.285 | 0.217 | 0.105
A-427 | 0.969 | 0.903 | 0.913 | 0.48 | 0.281 | 0.377 | 0.206 | 0.188 | 0.163 | 0.865 | 1.01 | 0.718 | 0.983 | 0.922 | 0.931 | 0.538 | 0.443 | 0.417

Reference: the supplement of paper PMC10307832
